The text below walks through data of PubChem BioAssay AID489035 (Sanford-Burnham Center for Chemical Genomics, 2010).

Activity calls are given as the source filed them. How the calls were made is not given here.

This test deals with Jurkat NF-kB reporter, TCR-induced, luciferase luminescence. Nature of the test: T-cell NF-kB luciferase reporter inhibition – Jurkat cells, luminescence, dose response (AID 489035). (A reporter such as luciferase makes a cellular process visible.)
Turning to `Cn1nc(CC(=O)Nc2ccc(N3CCN(C(=O)OC(C)(C)C)CC3)cc2)c2ccccc2c1=O`, the IC50 – broadly, the concentration at which inhibition is half-maximal – is > 80 µM (inactive).

Take `CSc1nc(N(C)NC(=O)c2cccc(C)c2)c2ccccc2n1`: the IC50 was 27.8 µM (inactive).

For `O=C(Nc1ccc(S(=O)(=O)N2CCCC2)cc1)c1ccc(CN2CCc3ccccc3C2)cc1`, the IC50 is > 80 µM (inactive).

With `CC(=O)Nc1ccc(S(=O)(=O)N2c3ccc(F)cc3CCC2C)cc1` (stereo unspecified), the IC50 is 7.46 µM.

Regarding `CCOc1ccc(-c2[nH]ncc2-c2ccc(OC)c(OC)c2)c(O)c1`, the IC50 is 28.4 µM (inactive).

In the case of `CC1CCCN(c2ncnc3c2cnn3-c2ccc(Cl)cc2)C1` (stereo unspecified), the half-inhibitory concentration (IC50) was 10.5 µM.

As to `Clc1cccc(Cl)c1/C=N/Nc1c(Cl)cncc1Cl`, the IC50 is > 80 µM (inactive).

Take `COc1ccc(S(=O)(=O)/N=C2\C=C(Nc3ccc(O)cc3)C(=O)c3ccccc32)cc1`: the IC50 is 0.53 µM.

In the case of `COc1ccc(Cn2c(SCc3ccc(C)cc3)nc3cc(OC)c(OC)cc3c2=N)cc1Cl`, the IC50 was 3.51 µM.

`COc1ccc(Nc2cc(C)nc(-n3nc(C)cc3C)n2)cc1`: the IC50 is > 80 µM (inactive).

`Cc1ncoc1C(=O)NC1CCCc2c1cnn2-c1ccc(C(C)(C)C)cc1` (stereo unspecified): the IC50 was > 80 µM (inactive).

For `Cc1ccc(C[n+]2c(-c3ccc(C)cc3)cc(-c3ccc(C)cc3)cc2-c2ccc(C)cc2)cc1`, the IC50 is 2.35 µM.

As for `O=S(=O)(c1cc(F)ccc1F)N1CCN(c2ncnc3ccccc23)CC1`, the IC50 was > 80 µM (inactive).

As for `Cc1ccc(/C=C/c2ccc(N(C)C)cc2)[n+](C)c1`, the IC50 is > 80 µM (inactive).

Consider `CCCC(=O)NC(c1ccc(OC)cc1)c1ccc2cccnc2c1O` (stereo unspecified), for which the IC50 is 2.83 µM.

Consider `C=C(C)COc1ccc(-c2n[nH]c(C)c2-c2ccc(OC)c(OC)c2)c(O)c1`, for which the IC50 is 21.1 µM (inactive).

For the molecule `c1ccc(-c2noc(-c3ccc4c(c3)OCO4)n2)nc1`, the half-inhibitory concentration (IC50) is 0.55 µM.

Turning to `COC(=O)c1ccc(Oc2cc(C)nc(SC)n2)cc1`, the IC50 was > 80 µM (inactive).

Turning to `Cc1c(C(=O)OC2CCCC2)[nH]c2c1C(=O)CC(c1ccco1)C2` (stereo unspecified), the IC50 is > 80 µM (inactive).

For the molecule `CCOc1ccc(Br)cc1C1=CC(=O)C[C@H](c2ccc(OC)cc2)C1`, the IC50 is > 80 µM (inactive).

As for `Cn1ncnc2c(=O)n(C)c(=O)nc1-2`, the IC50 was 0.51 µM.

Regarding `Cc1ccc(Nc2cc(C)nn2-c2nc(C)cc(=O)[nH]2)cc1`, the IC50 was 0.92 µM.

Regarding `Cn1nc([N+](=O)[O-])nc1Sc1nnc(-c2ccccc2)o1`, the IC50 was 7.97 µM.

On to `O=C1C=CCC(/C=C/c2ccccc2)O1` (stereo unspecified), for which the IC50 is 0.17 µM.

For the molecule `O=C(NCCc1ccccc1)c1ccc2c(c1)OCCO2`, the IC50 was 1.64 µM.

In the case of `COc1ccccc1-c1nnc2n1N=C(c1ccc(O)c(O)c1)CS2`, the IC50 was 7.43 µM.

As to `CC/C=C/CC(=O)N[C@@H](c1ccccc1)[C@@H](O)C(=O)O[C@H]1C[C@@]2(O)[C@@H](OC(=O)c3ccccc3)C3[C@](C)(C(=O)[C@H](OC(C)=O)C(=C1C)C2(C)C)[C@@H](O)C[C@H]1OC[C@@]31OC(C)=O` (stereo partly specified), the IC50 was > 80 µM (inactive).

With `CC(=O)c1ccc(N2CCN(S(=O)(=O)c3ccc4c(c3)CC(C)N4C(=O)C3CC3)CC2)cc1` (stereo unspecified), the IC50 is > 80 µM (inactive).

Regarding `O=C(COc1ccc2c(-c3ccccc3)cc(=O)oc2c1)Nc1cccnc1`, the IC50 was > 80 µM (inactive).

Regarding `O=C(Nc1cccc(C(F)(F)F)c1)c1sc(Cl)nc1C(F)(F)F`, the IC50 is 0.59 µM.

Regarding `CC(=O)Nc1ccc(S(=O)(=O)N2CCSc3ccccc32)cc1`, the IC50 is > 80 µM (inactive).

With `Cc1cc(C)c(S(=O)(=O)Nc2ccc3c4c(cccc24)CC3)c(C)c1`, the IC50 is 61 µM (inactive).

As for `CN=c1scc(-c2cccs2)n1/N=C/c1ccccc1O`, the IC50 is 2.09 µM.

Consider `O=c1oc2ccccc2cc1-c1cn(-c2ccccc2)c(=S)[nH]1`, for which the concentration for half-maximal inhibition (IC50) is 13 µM.

Regarding `CCn1c2ccccc2c2cc(Nc3cc(C)nc4ncnn34)ccc21`, the IC50 was > 80 µM (inactive).

Regarding `CN(C)c1ccc(-[n+]2c(-c3ccccc3)cc(-c3ccccc3)cc2-c2ccccc2)cc1`, the IC50 was 7.96 µM.

With `C[C@]12CC[C@@H]3c4cc(O)c(O)cc4CC[C@H]3[C@@H]1CC[C@@H]2O`, the IC50 was 4.76 µM.

Take `COc1cc(/C=C/c2ccc3cccc(O)c3n2)cc(OC)c1OC`: the IC50 is 1.59 µM.

Regarding `Cc1ccc(C(=O)c2cc([N+](=O)[O-])ccc2N2CCOCC2)c(C)c1`, the IC50 is 54.5 µM (inactive).

Consider `COc1cc(-c2noc(C)c2C#Cc2ccsc2)cc(OC)c1OC`, for which the IC50 is > 80 µM (inactive).

For `Cc1cc(C)cc(NS(=O)(=O)c2ccc(-c3cnc(C4CC4)o3)cc2)c1`, the IC50 was 20.5 µM (inactive).

Turning to `Cc1nnc(N/N=C/c2ccccn2)[nH]c1=O`, the IC50 was 1.18 µM.

As to `CCCCC(=O)NC(c1ccc(Cl)cc1)c1ccc2cccnc2c1O` (stereo unspecified), the IC50 was 8.39 µM.

Consider `CCC(=O)NC(c1ccc(C)cc1)c1ccc2cccnc2c1O` (stereo unspecified), for which the IC50 is 11.6 µM.

For `C/C=C(\C)C(=O)N[C@@H](c1ccccc1)[C@@H](O)C(=O)O[C@H]1C[C@@]2(O)[C@@H](OC(=O)c3ccccc3)C3[C@](C)(C(=O)[C@H](O)C(=C1C)C2(C)C)[C@@H](O)C[C@H]1OC[C@@]31OC(C)=O` (stereo partly specified), the IC50 was > 80 µM (inactive).

For `COc1cccc(CN(C)C(=O)c2ccc(OCC(=O)Nc3cccc(C(F)(F)F)c3)c(OC)c2)c1`, the IC50 is 40.5 µM (inactive).

Consider `CC(=O)Nc1ccc(S(=O)(=O)N2c3ccccc3C(C)=CC2(C)C)cc1`, for which the IC50 is 24.4 µM (inactive).

Regarding `COc1ccc(Nc2ncnc3ccc(Br)cc23)c(OC)c1`, the IC50 was 22 µM (inactive).

In the case of `CCn1c(C)cc(C(=O)CN2C(=O)c3ccccc3S2(=O)=O)c1C`, the 50% inhibitory concentration (IC50) was 1.68 µM.

Regarding `Cc1nc(NCc2ccco2)c2c(C)c(C)sc2n1`, the concentration for half-maximal inhibition (IC50) was 3.1 µM.

For `COc1ccc(NC(=O)/C(Cl)=C(/Cl)S(=O)Cc2ccccc2Cl)cn1` (stereo unspecified), the IC50 is 0.64 µM.

For `O=C(Nc1ccc(S(=O)(=O)N2CCN(Cc3ccccc3)CC2)cc1)c1cnccn1`, the IC50 was > 80 µM (inactive).

On to `C[C@@H]1O[C@@H](O[C@H]2C[C@@H](O)[C@]3(CO)[C@H]4[C@H](O)C[C@]5(C)[C@@H](C6COC(=O)C6)CC[C@]5(O)[C@@H]4CC[C@]3(O)C2)[C@H](O)[C@H](O)[C@H]1O` (stereo partly specified), for which the IC50 is > 80 µM (inactive).

For the molecule `CCn1c2ccccc2c2cc(NC(=O)c3cc(OC)c(OC)c(OC)c3)ccc21`, the IC50 was 76.2 µM (inactive).

As for `Cc1ccc(C(=O)N/N=C/c2ccc([N+](=O)[O-])s2)cc1`, the IC50 was 1.26 µM.

Turning to `COc1ccc(OC)c(COC(=O)c2cc([N+](=O)[O-])ccc2N2CCOCC2)c1`, the IC50 was 71.8 µM (inactive).

Consider `O=[N+]([O-])c1ccc(-c2nc(C(Cl)Cl)c3ccccc3n2)cc1`, for which the IC50 is 1.12 µM.

On to `O=C(Nc1ccc(C(F)(F)F)cc1)c1cccn(Cc2ccc3c(c2)OC(F)(F)O3)c1=O`, for which the IC50 was 17.2 µM.

As for `Cc1ccc(NC(=O)CSc2nc(-c3ccco3)cc(C(F)(F)F)n2)cc1C`, the IC50 is > 80 µM (inactive).

On to `CCOC(=O)COc1cccc2c(=O)n(CC(=O)NCc3ccc(F)cc3)ccc12`, for which the IC50 was > 80 µM (inactive).

Turning to `C=CCSc1nc2ccccc2n1C(=O)/C=C/c1cc(OC)c(OC)c(OC)c1`, the IC50 is 1.79 µM.
